Data: patent US11524021B2, “Use of ginsenoside M1 for manufacturing medicament for treating oral cancer” (priority 2018, dated 2022)

Columns and labels:
Type in all cases: cell-based
[1] = tested on: human oral cancer cells OECM-1; test: Apoptotic DNA breaks, TUNEL assay by flow cytometry; settings: 24 h
Procedure: Human oral cancer cell line OECM-1 cells were incubated for 24 h with ginsenoside M1 (10˜20 μg/ml), 50 μM cistaplatin (CDDP) or vehicle (0.1% DMSO). (FIG. 3A) The apoptotic DNA breaks was assayed by terminal deoxynucleotidyl transferase dUTP nick end labeling (TUNEL) assay using flow cytometry. (FIG. 3B) The cell cycle distribution was determined by PI staining using flow cytometry. (FIG. 3C) The apoptosis level was measured by PI/Annexin V double staining assay using flow cytometry. (FIG. 3D) The activation levels of caspase-9 and caspase-3 were measured by detecting the degradation of pro-caspase-9 and pro-caspase-3 using Western blotting. […] (One-way ANOVA with Dunnett's multiple comparisons test).
To gain further insight into the mode of action of ginsenoside M1, three assays targeting hallmarks of apoptosis, namely (1) the apoptotic DNA breaks assayed by terminal deoxynucleotidyl transferase dUTP nick end labeling (TUNEL) assay, (2) the cell cycle assayed by flow cytometry after propidium iodide (PI)-staining nuclei, (3) the PI/Annexin V double staining assay, and (4) caspase activation were performed. Plate 1×10^6 human oral cancer cells OECM-1 per 6-cm dish in 2 ml of culture medium and were grown overnight at 37° C. in a 5% CO2 incubator. The cells were incubated for 24 h with ginsenoside M1 (10˜20 μg/ml), 50 μM cistaplatin (CDDP) or vehicle. Each group contains a final DMSO concentration of 0.1%. Thereafter, three assays were performed. […] The cells in sub-G1 phase increased after treatment with ginsenoside M1 and CDDP. (FIG. 3B). […] The data were expressed as mean±SD; n=3. ** and *** indicate a significant difference at the level of p<0.01 and p<0.001, respectively, compared to vehicle-control cells. (One-way ANOVA with Dunnett's multiple comparisons test).

[2] = tested on: human oral cancer OECM-1 cells; test: Migration of OECM-1 cells, wound healing assay; settings: 18 h
Procedure: FIGS. 5A-5B show ginsenoside M1 reduced the migration ability of human oral cancer cells. Human oral cancer cell line SAS cells (FIG. 5A) or OECM-1 cells (FIG. 5B) were cultured in 6-cm dish until the cells reached 100% confluence forming a monolayer. A clear zone was created by scratching using a sterile 200-μl pipette tip. The cells were incubated for 24 h (SAS cells) or 18 h (OECM-1 cells) with ginsenoside M1 (5˜10 μg/ml) or (0.1% DMSO). The migration distance was measured and compared to the vehicle-control cells. The data were expressed as mean±SD; n=3. *** indicates a significant difference at the level of p<0.001, compared to vehicle-control cells. (One-way ANOVA with Dunnett's multiple comparisons test).
The cell migration ability was measured by wound healing assay. Plate 5×10^6 human oral cancer SAS cells or OECM-1 cells per 6-cm dish in 2 ml of culture medium and were grown overnight at 37° C. in a 5% CO2 incubator until the cells reached 100% confluence forming a monolayer. We used a sterile 200-μl pipette tip to create a scratched clear zone on the culture dish, and the wounds photographed by a phase contrast microscope as the baseline. […] The data were expressed as mean±SD; n=3. *** indicates a significant difference at the level of p<0.001, compared to vehicle-control cells. […]

[3] = tested on: human oral cancer OECM-1 cells; test: Viability of human oral cancer OECM-1 cells, Trypan blue exclusion; settings: 5˜20 μg/ml, 24 h
Procedure: Human oral cancer cell line SAS cells (FIG. 1A) or OECM-1 cells (FIG. 1B) were incubated for 24 h with ginsenoside M1 (5˜20 μg/ml), ginsenoside Rh2 (5˜20 μg/ml) or vehicle (0.1% DMSO). The live cell numbers were counted by Trypan blue exclusion method. The data were expressed as mean±SD; n=3. *, ** and *** indicate a significant difference at the level of p<0.05, p<0.01 and p<0.001, respectively, compared to vehicle-control cells. (One-way ANOVA with Dunnett's multiple comparisons test).
Plate 5×10^5 human oral cancer cells SAS per 6-cm dish in 2 ml of culture medium and were grown overnight at 37° C. in a 5% CO2 incubator. The cells were incubated for 24 h with ginsenoside M1 (5˜20 μg/ml), ginsenoside Rh2 (5˜20 μg/ml) or vehicle. Each group contains a final DMSO concentration of 0.1%. Thereafter, the cell numbers were counted by Trypan blue exclusion method. […] The data were expressed as mean±SD; n=3. *, ** and *** indicate a significant difference at the level of p<0.05, p<0.01 and p<0.001, respectively, compared to vehicle-control cells. (One-way ANOVA with Dunnett's multiple comparisons test).

## CC(C)=CCC[C@](C)(O[C@@H]1OC(CO)[C@@H](O)[C@@H](O)C1O)[C@H]1CC[C@]2(C)C1[C@H](O)CC1[C@@]3(C)CC[C@H](O)C(C)(C)C3CC[C@]12C (stereo partly drawn) [ginsenoside M1, 20-O-β-D-glucopyranosyl-20(S)-protopanaxadiol]
[1]; 10 μg/ml
  apoptotic DNA breaks in OECM-1 cells: not 10 μg/ml ginsenoside M1 significantly induced
[1]; 20 μg/ml
  apoptotic DNA breaks in OECM-1 cells: significantly induced
[2]; 5 μg/ml
  migration ability of OECM-1 cells: significantly inhibited
[2]; 10 μg/ml
  migration ability of OECM-1 cells: significantly inhibited
[3]
  cell numbers of human oral cancer OECM-1 cells: dose-dependently inhibited
